In US9193689B2, “3-aryl-5-substituted-isoquinolin-1-one compounds and their therapeutic use” (INSTITUTE OF CANCER RESEARCH: ROYAL CANCER HOSPITAL (THE), priority 2012, dated 2015):

Each compound was assayed against TNKS1 (Homo sapiens, UniProt O95271) (assay: TNKS1/PARP Biochemical Assay (TNKS1)).
In the case of `Cc1cccc2c(=O)[nH]c(-c3cc(F)c(C(=O)N4CC(O)C4)c(F)c3)cc12` [IQ-194], the IC50 is reported as < 20 nM. In the case of `CN1CCC(CN(C)S(=O)(=O)c2ccc(-c3cc4c(Cl)cccc4c(=O)[nH]3)cc2)CC1` [IQ-112], the IC50 is reported as < 50 nM. For `CC(C)(C)OC(=O)N1CCN(Cc2ccc(-c3cc4c(Cl)cccc4c(=O)[nH]3)cc2)CC1` [IQ-044], the IC50 was < 500 nM. With `Cc1cccc2c(=O)[nH]c(-c3ccc(S(=O)(=O)N(C)CC4CCN(C)CC4)cc3)cc12` [IQ-111] the IC50 was < 50 nM. With `Cc1cc(F)cc2c(=O)[nH]c(-c3ccc(C(=O)N(C)C4CN(C)C4)cc3)cc12` [IQ-201] the IC50 was < 50 nM. For `O=C(c1ncc(-c2cc3c(F)ccc(F)c3c(=O)[nH]2)cn1)N1CCN(CC2CC2)CC1` [IQ-229], the IC50 was < 500 nM. With `Cc1cccc2c(=O)[nH]c(-c3ccc(Cn4c(C)nc5ccccc54)cc3)cc12` [IQ-179] the IC50 was < 500 nM. For `CN(C)CCOc1ccc(-c2cc3c(C#CCCO)cccc3c(=O)[nH]2)cc1` [IQ-236, 3-[4-(2-Dimethylaminoethoxy)phenyl]-5-(4-hydroxybut-1-ynyl)-2H-isoquinolin-1-one], the IC50 was < 500 nM. For `Cc1cccc2c(=O)[nH]c(-c3ccc(OCCN4CCCC4)cc3)cc12` [IQ-134], the IC50 was < 50 nM. With `Cc1cccc2c(=O)[nH]c(-c3ccc(Cn4cccc4)cc3)cc12` [IQ-184] the IC50 was < 500 nM. For `Cc1cccc2c(=O)[nH]c(-c3ccc(N4CCC(N(C)C)CC4)nc3)cc12` [IQ-006], the IC50 was < 20 nM. `Cc1cccc2c(=O)[nH]c(-c3ccc(CN4C[C@H]5CNC[C@H]5C4)cc3)cc12` [IQ-090] was tested, and the IC50 was < 50 nM. `O=C(c1ccc(-c2cc3c(F)cc(F)cc3c(=O)[nH]2)cc1)N1CCN(CCO)CC1` [IQ-228, 5,7-Difluoro-3-{4-[4-(2-hydroxy-ethyl)-piperazine-1-carbonyl]-phenyl}-2H-isoquinolin-1-one] was tested, and the IC50 was < 50 nM. In the case of `Cc1cccc2c(=O)[nH]c(-c3ccc(S(=O)(=O)N(C)CC4CCNCC4)cc3)cc12` [IQ-115], the IC50 is reported as < 20 nM. `O=c1[nH]c(-c2ccc(CN3CCNCC3)cc2)cc2c(C3CC3)cccc12` [IQ-049] was tested, and the IC50 was < 500 nM. `Cc1cccc2c(=O)[nH]c(-c3ccc(C(C)N4CCNCC4)cc3)cc12` (stereo not drawn) [IQ-067] was tested, and the IC50 was < 50 nM. `Cc1cccc2c(=O)[nH]c(-c3ccc(N4CCC(N(C)C)C4)nc3)cc12` (stereo not drawn) [IQ-008] was tested, and the IC50 was < 20 nM. `Cc1cccc2c(=O)[nH]c(-c3ccc(C(=O)N4CC(N(C)C)C4)cc3)cc12` [IQ-202] was tested, and the IC50 was < 500 nM. In the case of `Cc1cccc2c(=O)[nH]c(-c3ccc(Cn4cccn4)cc3)cc12` [IQ-182], the IC50 is reported as < 20 nM. In the case of `Cc1cccc2c(=O)[nH]c(-c3ccc(S(=O)(=O)N(C)CC4CCOCC4)cc3)cc12` [IQ-118], the IC50 is reported as < 20 nM. For `O=c1[nH]c(-c2ccc(CN3CCNCC3)cc2)cc2c(F)cc(F)cc12` [IQ-158], the IC50 was < 50 nM. For `Cc1cc(F)cc2c(=O)[nH]c(-c3ccc(CN4CCNCC4)cc3)cc12` [IQ-078, 7-Fluoro-5-methyl-3-(4-piperazin-1-ylmethyl-phenyl)-2H-isoquinolin-1-one], the IC50 was < 50 nM. `Cc1cccc2c(=O)[nH]c(-c3ccc(CN4CC(O)C4)cc3)cc12` [IQ-167] was tested, and the IC50 was < 20 nM. In the case of `CN1CCN(Cc2ccc(-c3cc4c(F)cc(F)cc4c(=O)[nH]3)cc2)CC1` [IQ-138], the IC50 is reported as < 50 nM. For `Cc1cccc2c(=O)[nH]c(-c3ccc(N4CCNCC4)nc3)cc12` [IQ-028-1], the IC50 was < 20 nM. With `CC(C)(C)OC(=O)N1CCN(c2ccc(-c3cc4c(Cl)cccc4c(=O)[nH]3)cc2)CC1` [IQ-010] the IC50 was < 500 nM. With `Cc1cc(F)cc2c(=O)[nH]c(-c3ccc(CN4CC(O)C4)cc3)cc12` [IQ-170, 7-Fluoro-3-[4-(3-hydroxy-azetidin-1-ylmethyl)-phenyl]-5-methyl-2H-isoquinolin-1-one] the IC50 was < 20 nM. In the case of `Cc1cccc2c(=O)[nH]c(-c3ccc(N4CCN(CCN(C)C)CC4)nc3)cc12` [IQ-018], the IC50 is reported as < 20 nM. For `Cc1cccc2c(=O)[nH]c(-c3ccc(CN4CCN(CC5CC5)CC4)nc3)cc12` [IQ-161], the IC50 was < 500 nM. For `Cc1cccc2c(=O)[nH]c(-c3ccc(N4CCN(C(=O)OC(C)(C)C)CC4)cc3)cc12` [IQ-013], the IC50 was < 50 nM.
